Target: T1, nucleophosmin 1 (NPM1) (Homo sapiens, UniProt P06748)
T1 construct: full length of NPM1, recombinant, expressed in E. coli
Assay: SPR (Biacore […], NPM1 immobilized on NTA chip)
Format: binding

T1 sequence (P06748 whole entry): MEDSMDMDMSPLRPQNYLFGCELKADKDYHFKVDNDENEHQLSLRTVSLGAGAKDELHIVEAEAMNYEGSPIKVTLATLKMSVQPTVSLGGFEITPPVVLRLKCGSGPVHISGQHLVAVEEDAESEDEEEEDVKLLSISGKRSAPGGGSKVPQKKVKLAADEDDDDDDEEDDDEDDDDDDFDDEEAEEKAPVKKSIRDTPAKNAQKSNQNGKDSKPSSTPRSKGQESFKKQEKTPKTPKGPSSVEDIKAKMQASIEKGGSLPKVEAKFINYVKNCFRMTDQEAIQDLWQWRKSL

| Kd | SMILES |
| --- | --- |
| 62.3 nM | CC(C)c1cccc(C(C)C)c1N1C(=O)c2ccc(N)cc2C1=O [TC11, 2-(2,6-diisopropylphenyl)-5-amino-1H-isoindole-1,3-dione] |
| 766 nM | Nc1cccc2c1CN(C1CCC(=O)NC1=O)C2=O (centres unmarked) [lenalidomide] |

Source: publication PMC4305313, “A Novel Phthalimide Derivative, TC11, Has Preclinical Effects on High-Risk Myeloma Cells and Osteoclasts” (PLoS ONE, 2015)
